In patent US9090701B2, “Methods of detecting oxidized calcium/calmodulin dependent protein kinase II” (University of Iowa Research Foundation, priority 2008, dated 2015):

Test system: cardiomyocytes
Assay: Isolated cardiomyocyte TUNEL staining
Assay type: cell-based, mouse
Conditions: 100 nM, 24 hours
Experimental: Myocyte isolations from neonatal mouse or rat pups were modified from previously described methods (Mohler e.g., 2007). To generate the primary cardiomyocyte cultures, hearts were dissected from P1 animals and placed in 1 mL of Ham's F-10. Atrial tissue was removed and the ventricular chambers were rinsed to remove any remaining blood. Hearts were transferred into 1.5 mL of 0.05% Trypsin, 200 μM EDTA in Ham's F-10 medium (Mediatech). Hearts were minced into approximately 20 small pieces using forceps and small scissors and incubated in the Trypsin/EDTA medium at 37° C. Following 15 min, the heart pieces were mixed by a Pasteur pipette and incubated for an additional 15 min. A mixture of 200 μL of soybean trypsin inhibitor (2 mg/mL; Worthington) and 200 μL of collagenase (0.2 mg/mL; 1980 units/mg; Sigma) was incubated with the cells for 35-50 min at 37° C. The cell suspension was pelleted, resuspended in “Complete Medium” (40% DMEM, 40% Ham's F-10, 20% FCS), and plated on plastic dishes. Following five hours, the non-adhered cells (cardiomyocytes) were aspirated from the plate, pelleted, resuspended in Complete Medium, and plated on Mattek tissue culture plates (fibronectin-coated; Roche). Cardiomyocytes were washed with Ham's F-10 and Medium was replaced with “Defined Medium” to prevent the growth of fibroblasts. 100× Defined Medium consists of 100 μg/mL insulin, 500 μg/mL transferrin, 100 nM LiCl, 100 nM NaSeO4, and 10 nM thyroxine. To ensure that pure populations of cardiomyocytes were obtained, cultures were immunolabeled with alpha-actinin Ig (cardiomyocyte-specific marker). Only cultures with >90% cardiomyocytes were used in experiments. (See FIG. 12.) Lentiviral treatments (shRNA, rescue constructs) and apoptosis inducing agents (Iso, AngII) were used for 24 hours. Cells were fixed in 4% paraformaldehyde, permeabilized in 0.1% Triton X-100 and sodium citrate, and stained using In Situ cell death detection kits, TMR Red (Roche). TUNEL stain assays were interpreted as previously described (Yang e.g., 2006). Nuclei were co-stained with DAPI. Investigators were blinded to the genetic identity and treatment of the mice in all studies.
Cardiomyocytes from mice that express an inhibitory peptide against CaMKII (AC3-I, Zhang e.g., 2005) were treated with 100 nM AngII for 24 hours in parallel with isolated cardiomyocytes from WT and p47^−/− mice. […] Activity assays for caspase-3, a downstream target enzyme in the CaMKII apoptotic signaling pathway in heart, recapitulated the results from the TUNEL assay (FIG. 7A).

For “angiotensin II (DRVYIHPF; Angiotensin-2; UniProt P01019 25-32, looked up) [AngII, oxidant stimulating agent in cardiac tissue]”, the “Percent of TUNEL positive nuclei” value (WT cells) was “significant increase” and the “Percent of TUNEL positive nuclei” value (p47−/− or AC3-I cardiomyocytes) was “no significant effect”.
